# Target: T1, CCR2 (Homo sapiens, UniProt P41597)
# T1 construct: host or cells: THP-1 human monocytic cells
# Assay: MCP-1 Receptor Binding Assay in THP-1 Cells (125I-MCP-1 displacement)
# Details: 0.5 nM 125I labeled MCP-1, 2 hours at 30° C., read-out: CCR2 Binding, Inhibition of MCP-1 Binding IC50
# Description: Compounds of the invention were subjected to various representative biological tests. The results of these tests are intended to illustrate the invention in a non-limiting fashion. MCP-1 Receptor Binding Assay in THP-1 Cells
# Human monocytic cell line THP-1 cells were obtained from American Type Culture Collection (Manassas, Va., USA). The THP-1 cells were grown in RPMI-1640 (RPMI: Roswell Park Memorial Institute Medium-cell culture growth media) supplemented with 10% fetal bovine serum in a humidified 5% CO2 atmosphere at 37° C. The cell density was maintained […].
# THP-1 (cells were incubated with 0.5 nM ^125I labeled MCP-1 (Perkin-Elmer Life Sciences, Inc. Boston, Mass.) in the presence of varying concentrations of either unlabeled MCP-1 (R & D Systems, Minneapolis, Minn.) or test compound for 2 hours at 30° C. in a 96 well plate. Cells were then harvested onto a filter plate, dried, and 20 μL of Microscint 20 was added to each well. Plates were counted in a TopCount NXT, Microplate Scintillation & Luminescence Counter (Perkin-Elmer Life Sciences, Inc. Boston, Mass.). Blank values (buffer only) were subtracted from all values and drug treated values were compared to vehicle treated values. 1 μM cold MCP-1 was used for nonspecific binding.
# Table 1 lists IC50 values for inhibition of MCP-1 binding to CCR2 obtained for test compounds of the invention. Where an IC50 value was not obtained for a particular compound, the percent inhibition is provided at a test concentration of 25 μM.
# T1 sequence (P41597 whole entry): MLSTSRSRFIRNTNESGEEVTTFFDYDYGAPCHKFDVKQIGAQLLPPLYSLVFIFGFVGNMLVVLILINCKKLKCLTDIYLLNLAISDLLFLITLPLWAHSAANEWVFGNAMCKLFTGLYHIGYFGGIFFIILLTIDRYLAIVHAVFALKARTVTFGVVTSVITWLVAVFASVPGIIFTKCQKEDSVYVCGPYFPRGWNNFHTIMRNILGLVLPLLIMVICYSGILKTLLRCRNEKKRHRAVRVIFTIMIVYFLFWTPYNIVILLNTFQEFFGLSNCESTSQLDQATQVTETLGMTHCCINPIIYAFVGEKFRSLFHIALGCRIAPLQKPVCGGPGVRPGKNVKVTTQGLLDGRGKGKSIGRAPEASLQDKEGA
row,IC50 [µM],SMILES
1,0.13,"O=C(CNC(=O)c1cccc(C(F)(F)F)c1)NC1CN(C2CCC(n3ccccc3=O)CC2)C1 (single isomer, unassigned) [Example 1a, N-({1-[4-(2-Oxo-2H-pyridin-1-yl)-cyclohexyl]-azetidin-3-ylcarbamoyl}-methyl)-3-trifluoromethyl-benzamide]"
2,0.23,"O=C(CNC(=O)c1cccc(C(F)(F)F)c1)NC1CN(C2CCC(Oc3ccccn3)CC2)C1 (single isomer, unassigned) [Example 2a, N-({1-[4-(Pyridin-2-yloxy)-cyclohexyl]-azetidin-3-ylcarbamoyl}-methyl)-3-trifluoromethyl-benzamide]"
3,24,"O=C(CNC(=O)c1cccc(C(F)(F)F)c1)NC1CN(C2CCC(Oc3ncc(Br)cn3)CC2)C1 (single isomer, unassigned) [Example 5a, N-({1-[4-(5-Bromo-pyrimidin-2-yloxy)-cyclohexyl]-azetidin-3-ylcarbamoyl}-methyl)-3-trifluoromethyl-benzamide]"
4,0.38,"O=C(CNC(=O)c1cccc(C(F)(F)F)c1)NC1CN(C2CCC(n3cnccc3=O)CC2)C1 (single isomer, unassigned) [Example 6a, N-({1-[4-(6-Oxo-6H-pyrimidin-1-yl)-cyclohexyl]-azetidin-3-ylcarbamoyl}-methyl)-3-trifluoromethyl-benzamide]"
5,2.7,"O=C(CNC(=O)c1cccc(C(F)(F)F)c1)NC1CN(C2CCC(Oc3ccncn3)CC2)C1 (single isomer, unassigned) [Example 7a, N-({1-[4-(Pyrimidin-4-yloxy)-cyclohexyl]-azetidin-3-ylcarbamoyl}-methyl)-3-trifluoromethyl-benzamide]"
6,0.43,"O=C(CNC(=O)c1cccc(C(F)(F)F)c1)NC1CN(C2CCC(n3cc(I)ccc3=O)CC2)C1 (single isomer, unassigned) [Example 8a, N-({1-[4-(5-Iodo-2-oxo-2H-pyridin-1-yl)-cyclohexyl]-azetidin-3-ylcarbamoyl}-methyl)-3-trifluoromethyl-benzamide]"
7,0.82,"Cc1ccc(OC2CCC(N3CC(NC(=O)CNC(=O)c4cccc(C(F)(F)F)c4)C3)CC2)nc1 (single isomer, unassigned) [Example 12a, N-({1-[4-(5-Methyl-pyridin-2-yloxy)-cyclohexyl]-azetidin-3-ylcarbamoyl}-methyl)-3-trifluoromethyl-benzamide]"
8,0.1,"COc1cccn(C2CCC(N3CC(NC(=O)CNC(=O)c4cccc(C(F)(F)F)c4)C3)CC2)c1=O (single isomer, unassigned) [Example 13a, N-({1-[4-(3-Methoxy-2-oxo-2H-pyridin-1-yl)-cyclohexyl]-azetidin-3-ylcarbamoyl}-methyl)-3-trifluoromethyl-benzamide]"
9,5.4,"O=C(CNC(=O)c1cccc(C(F)(F)F)c1)NC1CN(C2CCC(n3ccc(O)cc3=O)CC2)C1 (single isomer, unassigned) [Example 15a, N-({1-[4-(4-Hydroxy-2-oxo-2H-pyridin-1-yl)-cyclohexyl]-azetidin-3-ylcarbamoyl}-methyl)-3-trifluoromethyl-benzamide]"
10,0.33,"Cc1cccn(C2CCC(N3CC(NC(=O)CNC(=O)c4cccc(C(F)(F)F)c4)C3)CC2)c1=O (single isomer, unassigned) [Example 18a, N-({1-[4-(3-Methyl-2-oxo-2H-pyridin-1-yl)-cyclohexyl]-azetidin-3-ylcarbamoyl}-methyl)-3-trifluoromethyl-benzamide]"
11,6.5,"O=C(CNC(=O)c1cccc(C(F)(F)F)c1)NC1CN(C2CCC(n3cc(C(F)(F)F)ccc3=O)CC2)C1 (single isomer, unassigned) [Example 21a, N-({1-[4-(2-Oxo-5-trifluoromethyl-2H-pyridin-1-yl)-cyclohexyl]-azetidin-3-ylcarbamoyl}-methyl)-3-trifluoromethyl-benzamide]"

# — US8324186B2, “4-azetidinyl-1-heteroatom linked-cyclohexane antagonists of CCR2” (Janssen Pharmaceutica N.V., priority 2009, dated 2012)
